{"source": "patent US20080004276A1", "about": "“Method for treating non-hodgkin's lymphoma” (priority 2006, published 2008)", "key": {"Her2": {"tested_on": "Her2", "assay": "IC50 range for inhibition of Her2 degradation (Table 8)", "format": "cell-based", "settings": "Homo sapiens", "method": "Human high-Her2 breast carcinoma BT474 (HTB-20), SK-BR-3 (HTB-30) and MCF-7 breast carcinoma (HTB-22) from American Type Culture Collection, VA, USA were grown in Dulbecco's modified Eagle's medium with 4 mM L-glutamine and antibiotics (100 IU/ml penicillin and 100 ug/ml streptomycine; GibcoBRL). To obtain exponential cell growth, cells were trypsinized, counted and seeded at a cell density of 0.5×10^6 cells/ml regularly, every 3 days. All experiments were performed on day 1 after cell passage. […]\nAfter treatment with a compound of the invention, cells were washed twice with 1×PBS/1% FBS, and then stained with anti-Her2-FITC (#340553, BD) for 30 min at 4° C. Cells were then washed three times in FACS buffer before the fixation in 0.5 ml 1% paraformadehydrede. Data was acquired on a FACSCalibur system. Isotype-matched controls were used to establish the non-specific staining of samples and to set the fluorescent markers. A total 10,000 events were recorded from each sample. Data were analysed by using CellQuest software (BD Biosciences)."}, "MDA-MB-435S": {"tested_on": "MDA-MB-435S", "assay": "MDA-MB-435S nude mouse xenograft model", "format": "in vivo", "settings": "300 mg/kg IP, 5 times per week for 3 weeks, nude mice; FIG. 4", "method": "FBS was obtained from Sigma-Aldrich Corp. (St. Louis, Mo., USA), and all other reagents were obtained from Invitrogen Corp. (Carlsbad, Calif., USA). Approximately 4-5×10(6) cells that had been cryopreserved in liquid nitrogen were rapidly thawed at 37° C. and transferred to a 175 cm^2 tissue culture flask containing 50 ml of growth media and then incubated at 37° C. in a 5% CO2 incubator. The growth media was replaced every 2-3 days until the flask became 90% confluent, typically in 5-7 days. To passage and expand the cell line, a 90% confluent flask was washed with 10 ml of room temperature phosphate buffered saline (PBS) and the cells were disassociated by adding 5 ml 1× Trypsin-EDTA (Invitrogen) and incubating at 37° C. until the cells detached from the surface of the flask. To inactivate the trypsin, 5 ml of growth media was added and then the contents of the flask were centrifuged to pellet the cells. The supernatant was aspirated and the cell pellet was resuspended in 10 ml of growth media and the cell number determined using a hemocytometer. […]\nSix to eight week old, female Crl:CD-1-nuBR (nude) mice were obtained from Charles River Laboratories (Wilmington, Mass., USA). […] Tumor volumes (V) were calculated by caliper measurement of the width (W), length (L) and thickness (T) of tumors using the following formula: V=[…]×(L×W×T). […]"}}, "note": "“Also recorded” adds a separate entry of the source.", "data": [{"smiles": "CCc1cc(-c2nnc(S)n2-c2cccc3ccccc23)c(O)cc1O", "note": "[Compound 49, 3-(2,4-Dihydroxy-5-ethyl-phenyl)-4-(naphthalen-1-yl)-5-mercapto-triazole]", "values": [{"measurement": "IC50", "setting": "Her2", "result": "< 3000", "unit": "nM"}, {"measurement": "toxicity (effect on body weights)", "setting": "MDA-MB-435S", "result": "not associated with significant toxicity; also recorded: not toxic"}]}]}
